# Results published in paper PMC4876444, “Two-Photon Enzymatic Probes Visualizing Sub-cellular/Deep-brain Caspase Activities in Neurodegenerative Models” (Scientific Reports, 2016).
# Where a SMILES comes first, the peptide text is derived from it. The star is where a group is joined. NH(6-Ac-2-naphthyl) = CC(=O)c1ccc2cc(N*)ccc2c1; Cbz = O=C(OCc1ccccc1)*; CH2F = FC*
# How the values were obtained:
# [1] = not given; remark: listed apart in the source
# [2] = not given; remark: listed apart in the source
# [3] = test system: caspase-3-like activities in STS-induced BV2 and HeLa cells; test: TPFM live-cell imaging of STS-induced apoptotic cells; assay type: cell-based, mouse, human
# Procedure: Figure 3 Bioimaging of active caspases in live cells. TPFM (λex = 760 nm; λem = 480-550 nm for all AAN-probes) of STS-induced (a) BV2 cells (2 μM, 4 h) and (b) HeLa cells (1 μM, 4 h) using C3RA/C8RA (24 μM, 1 h). Panels 3/6: cells pretreated with Z-VAD(OMe)-FMK (50 μM, 1 h) before STS addition. Panels 1/4: normal cells (DMSO). (c) WB analysis of cleaved caspase-3/-8 from (a,b). (d) TPFM of normal/apoptotic Hela cells imaged by C3RA (24 μM, up) or Ac-DEVD-AMC (40 μM, down; λem = 420–500 nm). Panels 1/3: normal cells. Panels 2/4: STS-induced cells (1 μM, 4 h). Bottom inset: bright field. Top inset: one-photon images (λex = 405 nm). (e) Real-time imaging of caspase-3/-8-like activities in live BV2 cells using 24 μM of C3RA (top)/C8RA (bottom) upon STS (2 μM) stimulation over 2 h. (f) Graphical quantification of RFU extracted from (e). (g) WB analysis of time-dependent caspase-3/-8 cleavage from STS-induced (2 μM) BV2 lysates. (h) WB analysis of time-dependent caspase-3/-7/-8 activation by detection of cleaved caspase-3/-7/-8 from lysates of HeLa cells stimulated with STS (2 μM). (i) RFU from real-time imaging of caspase-3-like activity in live HeLa cells with C3RA/C3RM/C3RE (24 μM, added 1 h before STS) upon STS (2 μM) stimulation. (j) Representative images (t = 60 min) from (i). (k) IF of STS-stimulated (2 μM, 2 h) HeLa cells by anti-caspase-3 (p17) antibody (red) with 3D projections of z-stack images at 90° view and merged with MitoTracker (green, left) or ER tracker (cyan, right). (l) TPFM of caspase-1 activation in primary cortical neurons upon glucose deprivation (GD, 8 h) followed by 1-h incubation with C1RB (24 μM) or C1FS (12 μM; λem = 450–550 nm). Inset: bright field images. NC: neuron cells incubated in normal neurobasal medium. Scale bar = 10 μm in all images.
# NIH/3T3, HeLa and BV2 cell lines used in our experiments were cultured in DMEM medium supplemented with 10% (for NIH/3T3 and HeLa) or 5% (for BV2) fetal bovine serum (FBS), with 100.0 mg/L streptomycin and 100 IU/mL penicillin. […]
# [4] = test system: NIH/3T3, BV2 and HeLa cells; test: XTT cytotoxicity assay; assay type: cell-based, mouse, human; conditions: XTT assay, 12, 30, 60, 120 μM, 24 h
# Procedure: Supplementary Figure 4. Cytotoxicity of two-photon enzymatic probes (12, 30, 60, 120 μM) in mammalian cells (NIH/3T3, BV2 and HeLa) after incubation for 24 h, as determined by XTT assay. […]
# Detection of caspase activities in mammalian cells and tissues
# Cell culture. The mouse embryonic fibroblast cell line (NIH/3T3), mouse microglial cell line (BV2) and human epithelial carcinoma cell line (HeLa) used in our experiments were cultured in Dulbecco’s Modified Eagle's Medium (DMEM) supplemented with 10% (for NIH/3T3 and HeLa) or 5% (for BV2) fetal bovine serum (FBS), 100.0 mg/L streptomycin and 100 IU/mL penicillin in a humidified atmosphere of 5% CO2 at 37 °C.
# XTT assay. The cytotoxicity of our probes was determined by using the XTT colorimetric cell proliferation kit (Roche) following manufacturer’s guidelines. Briefly, NIH/3T3, BV2 and HeLa cells were seeded in 20~30% confluency (since they will reach >50% confluency within 24 h) into 96-well plates and incubated overnight before the addition of probes with concentrations of 12 μM, 30 μM, 60 μM and 120 μM, respectively. Probes were applied from DMSO stocks whereby DMSO never exceeded 1% in the final solution. The same volume of DMSO was used as a negative control; and the same volume of STS (200 nM) was used as a positive control. After a total treatment time of 24 h, proliferation was assayed using the XTT assay (Supplementary Fig. 4). […]
# [5] = test system: caspases (-1, -3, -6, -8 and -9); test: In vitro selectivity against a panel of recombinant caspases; assay type: biochemical, Human; conditions: probe 6 μM, uniform conditions with caspases -1, -3, -6, -8, -9, 2-h incubation at room temperature, tetrapeptide-AMC as references
# Procedure: Figure 2 Photophysical and enzymatic properties of caspase probes. (a) Photophysical and kinetic properties of probes and free dyes. All measurements were taken in 50 mM HEPES, 50 mM NaCl, 0.1% CHAPS, 10 mM EDTA, 5% glycerol, 10 mM DTT, at pH = 7.2. (b) Time-dependent ratiometric fluorescence changes of C1RB (6 μM) incubated with caspase-1 (10 nM) over 2 h at room temperature. Data were obtained by plotting the normalized ratio of fluorescence intensity at 500 nm (F500 nm) over that at 450 nm (F450 nm). (Inset) time-dependent fluorescence emission spectra with λex = 350 nm. (c) Time-dependent “Turn-ON” effect of C1FS (6 μM) incubated with caspase-1 (10 nM) measured and normalized at 460 nm (F460 nm) over 2 h at room temperature, with the corresponding fluorescence emission spectra (inset). λex = 350 nm. […] S and N represent the fluorescence emission intensity of each reaction solution in the presence (S) and absence (N) of caspase-1. […] Normalized, relative fluorescence (RFU) values were obtained after 2-h incubation at room temperature. […]
# Enzyme kinetics. […] Detailed kinetic properties of these probes were measured with target recombinant caspases using commercial tetrapeptide-AMC fluorogenic substrates as references at 25 °C in 384-well plates (Greiner Bio-One #781900). […]
# shaking at 150 rpm for 24 h at 25 °C, a small portion of the reaction was analyzed by LC-MS (IT-TOF). […]
Molecule,λem (emission maximum) [nm],λex (absorption/excitation maximum) [1] [nm],δΦ (two-photon action cross-section) [2] [GM],"fluorescence properties for imaging caspase-3-like activities under two-photon settings, compared to C3RA ([3]; live HeLa cells, STS 1 μM 4 h, 40 μM, λex 760 nm)",cytotoxicity [4],probe selectivity profile towards intended caspase [5],"effect of inhibitor on C3RA fluorescence in STS-induced cells ([3]; inhibitor 50 μM, 1 h before STS, BV2 and HeLa cells, C3RA 24 μM)"
CC(=O)N[C@@H](Cc1ccc(O)cc1)C(=O)N[C@H](C(=O)N[C@@H](C)C(=O)N[C@@H](CC(=O)O)C(=O)Nc1ccc2cc(C(C)=O)ccc2c1)C(C)C,448,316,6.9,–,–,–,–
CC(=O)N[C@@H](CC(=O)O)C(=O)N[C@@H](CCC(=O)O)C(=O)N[C@H](C(=O)N[C@@H](CC(=O)O)C(=O)Nc1ccc2c(C)cc(=O)oc2c1)C(C)C [Ac-DEVD-AMC],–,–,–,significantly poorer fluorescence properties,–,–,–
"CC(=O)c1ccc2cc(NC(=O)[C@H](CC(=O)O)NC(=O)[C@@H](NC(=O)[C@H](CCC(=O)O)NC(=O)[C@H](CC(=O)O)NC(=O)CCC[P+](c3ccccc3)(c3ccccc3)c3ccccc3)C(C)C)ccc2c1 [C3RM, TPP-DEVD-AAN]",448,317,1.4,–,minimally cytotoxic,–,–
"CC[C@H](C)[C@H](NC(=O)[C@H](CCC(=O)O)NC(=O)[C@@H](NC(C)=O)C(C)C)C(=O)N[C@@H](CC(=O)O)C(=O)Nc1ccc2cc(C(C)=O)ccc2c1 [C6RA, Ac-VEID-AAN] (Ac-VEID-{NH(6-Ac-2-naphthyl)})",448,316,1.8,–,–,comparatively poor selectivity profiles,–
"CC[C@H](C)[C@H](NC(C)=O)C(=O)N[C@@H](CCC(=O)O)C(=O)N[C@H](C(=O)N[C@@H](CC(=O)O)C(=O)Nc1ccc2cc(C(C)=O)ccc2c1)[C@@H](C)O [C8RA, Ac-IETD-AAN] (Ac-IETD-{NH(6-Ac-2-naphthyl)})",448,316,2.4,–,minimally cytotoxic,–,–
"CC(=O)N[C@@H](CC(C)C)C(=O)N[C@@H](CCC(=O)O)C(=O)N[C@@H](Cc1c[nH]cn1)C(=O)N[C@@H](CC(=O)O)C(=O)Nc1ccc2cc(C(C)=O)ccc2c1 [C9RA, Ac-LEHD-AAN] (Ac-LEHD-{NH(6-Ac-2-naphthyl)})",448,316,3.2,–,–,comparatively poor selectivity profiles,–
Cbz-Val-Ala-Asp(OMe)-CH2F,–,–,–,–,–,–,inhibited
